From patent US6750228B1, “Aromatic sulfone hydroxamic acid metalloprotease inhibitor” (priority 1997, dated 2004)
Where a name gives a salt, the structure may show the parent alone. Read-outs that look alike come from different tables or passages of the source.

Experiments:
Assay in all cases: biochemical
MMP-2 = biological target: T1, MMP-2 (Homo sapiens, UniProt P08253)
T1 construct: made in house; provided by Dr. Gregory Goldberg, Washington University
T1 sequence (P08253 110-660): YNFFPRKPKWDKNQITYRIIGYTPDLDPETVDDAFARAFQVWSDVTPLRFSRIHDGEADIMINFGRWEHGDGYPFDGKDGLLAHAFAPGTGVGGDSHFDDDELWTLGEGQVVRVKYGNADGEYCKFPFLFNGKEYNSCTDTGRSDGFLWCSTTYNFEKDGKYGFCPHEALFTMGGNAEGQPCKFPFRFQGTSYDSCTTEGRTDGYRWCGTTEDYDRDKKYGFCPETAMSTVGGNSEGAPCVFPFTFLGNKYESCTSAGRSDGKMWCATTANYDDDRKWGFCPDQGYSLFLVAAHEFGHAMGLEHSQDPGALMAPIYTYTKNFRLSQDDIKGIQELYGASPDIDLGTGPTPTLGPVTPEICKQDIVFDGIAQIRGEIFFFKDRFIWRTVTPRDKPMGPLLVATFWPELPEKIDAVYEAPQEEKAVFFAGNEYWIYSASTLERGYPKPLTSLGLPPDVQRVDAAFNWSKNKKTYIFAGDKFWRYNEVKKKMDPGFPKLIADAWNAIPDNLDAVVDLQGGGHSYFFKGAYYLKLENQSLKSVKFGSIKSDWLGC
Procedure, shortened: (§1)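 Assay buffer 100 mM Tris-HCl, 100 mM NaCl, 10 mM CaCl2, pH 7.5. Activated MMP + inhibitor, 5 min RT; then methoxycoumarin peptide substrate, 4 μM final. Readout fluorescence; IC50 calculated.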

MMP-13 = biological target: T2, MMP-13 (Homo sapiens, UniProt P45452); conditions: read-out: MMP-13 IC50
T2 construct: made in house; host or cells: baculovirus / insect cells
Procedure, shortened: as §1

MMP-1 = biological target: T3, MMP-1 (Homo sapiens, UniProt P03956); conditions: read-out: MMP-1 IC50
T3 construct: made in house; host or cells: transfected HT-1080 cells (provided by Dr. Harold Welgus, Washington University)
T3 sequence (P03956 100-469): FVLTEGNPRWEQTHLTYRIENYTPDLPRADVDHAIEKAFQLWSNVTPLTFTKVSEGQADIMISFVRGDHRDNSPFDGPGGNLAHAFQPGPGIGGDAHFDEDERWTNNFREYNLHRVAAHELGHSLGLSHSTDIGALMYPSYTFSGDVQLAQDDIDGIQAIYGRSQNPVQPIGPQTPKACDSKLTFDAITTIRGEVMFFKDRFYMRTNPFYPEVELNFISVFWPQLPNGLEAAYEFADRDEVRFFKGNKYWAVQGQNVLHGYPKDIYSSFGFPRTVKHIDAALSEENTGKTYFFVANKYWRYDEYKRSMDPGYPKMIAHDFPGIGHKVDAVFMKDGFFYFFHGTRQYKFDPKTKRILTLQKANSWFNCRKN
Procedure, shortened: as §1

[1] = recombinant human MMP-2, MCA peptide substrate 4 μM, pH 7.5, room temperature, read-out: MMP-2 IC50
[2] = recombinant human MMP-13, MCA peptide substrate 4 μM, pH 7.5, room temperature
[3] = recombinant human MMP-1, MCA peptide substrate 4 μM, pH 7.5, room temperature

Row | SMILES | IC50 (MMP-2; [1]) [nM] | IC50 (MMP-13; [2]) [nM] | IC50 (MMP-1; [3]) [µM] | IC50 (MMP-2; MMP-2 IC50 (nM)) [nM] | IC50 (MMP-13) [nM] | IC50 (MMP-1) [µM]
1 | CC(C)c1ccc(C(=O)C2CCN(c3ccc(S(=O)(=O)C4(C(=O)NO)CCOCC4)cc3)CC2)cc1 [Example 788] | 445 | 3 | > 10 | – | – | –
2 | O=C(NO)C1(S(=O)(=O)c2ccc(Oc3ccc(OC(F)(F)F)cc3)cc2)CCN(S(=O)(=O)c2ccccc2)CC1 [Example 194] | < 0.1 | 0.3 | > 7.3 | – | – | –
3 | O=C(CN1CCCC1)N1CCC(C(=O)NO)(S(=O)(=O)c2ccc(Oc3ccc(C(F)(F)F)cc3)cc2)CC1 [Example 326] | 0.45 | 0.6 | > 10 | – | – | –
4 | CC1CC(C)CN(C(=O)C2CCN(c3ccc(S(=O)(=O)C4(C(=O)NO)CCN(C(=O)CN5CCN(CCN6CCOCC6)CC5)CC4)cc3)CC2)C1 (stereo not drawn) [Example 306] | > 10000 | 60 | > 10 | – | – | –
5 | COc1ccccc1C1CCN(c2ccc(S(=O)(=O)C3(C(=O)NO)CCOCC3)cc2)CC1 [Example 79] | – | – | – | 2000 | 20 | > 10
6 | N#Cc1ccccc1-c1ccc(COC2CCN(c3ccc(S(=O)(=O)C4(C(=O)NO)CCOCC4)cc3)CC2)cc1 [Example 557] | 200 | 16.9 | > 10 | – | – | –
7 | COc1ccccc1C(=O)C1CCN(c2ccc(S(=O)(=O)C3(C(=O)NO)CCOCC3)cc2)CC1 [Example 655] | 1400 | 37.3 | > 10 | – | – | –
8 | O=C(NO)C1(S(=O)(=O)c2ccc(Oc3ccc(OC(F)(F)F)cc3)cc2)CCN(c2cccnc2)CC1 [Example 392] | 0.1 | 0.2 | > 10 | – | – | –
9 | Cc1cccc(N2CCN(c3ccc(S(=O)(=O)C4(C(=O)NO)CCOCC4)cc3)CC2)c1C [Example 490] | 3000 | 61 | > 10 | – | – | –
10 | O=C(NO)C1(S(=O)(=O)c2ccc(N3CCC(Nc4ccccc4O)CC3)cc2)CCOCC1 [Example 842] | 45.4 | 5.5 | > 10 | – | – | –
11 | COCCN(CCOC)CC(=O)N1CCC(C(=O)NO)(S(=O)(=O)c2ccc(Oc3ccc(C(F)(F)F)cc3)cc2)CC1 [Example 327] | 0.3 | 0.9 | > 10 | – | – | –
12 | O=C(NO)C1(S(=O)(=O)c2ccc(N3CC=C(c4ccccc4C(F)(F)F)CC3)cc2)CCOCC1 [Example 208] | 1000 | 110 | > 10 | – | – | –
13 | O=C(NO)C1(S(=O)(=O)c2ccc(N3CCC(Oc4ccc([N+](=O)[O-])cc4C(F)(F)F)CC3)cc2)CCOCC1 [Example 481] | 1400 | 50 | > 10 | – | – | –
14 | CCCCOc1cccc(S(=O)(=O)N2CC(Oc3ccc(S(=O)(=O)C4(C(=O)NO)CCOCC4)cc3)C2)c1 [Example 830] | 2100 | 17.9 | > 10 | – | – | –
15 | Cc1ccc(COC2CCN(c3ccc(S(=O)(=O)C4(C(=O)NO)CCOCC4)cc3)CC2)cc1 [Example 172] | 160 | 3.8 | > 10 | – | – | –
16 | O=C(c1ccco1)N1CCN(c2ccc(S(=O)(=O)C3(C(=O)NO)CCOCC3)cc2)CC1 [Example 537] | 55 | 70 | 5.2 | – | – | –
17 | CC1CCCCN1c1ccc(S(=O)(=O)C2(C(=O)NO)CCOCC2)cc1 (stereo not drawn) [Example 486] | 4000 | 5400 | > 10 | – | – | –
18 | O=C(C1CCN(c2ccc(S(=O)(=O)C3(C(=O)NO)CCOCC3)cc2)CC1)N1CCN(c2ccc(F)cc2)CC1 [Example 25] | – | – | – | 1600 | 6 | > 10
19 | O=C(c1ccc(OC(F)(F)F)cc1)N1CCC(C(=O)NO)(S(=O)(=O)c2ccc(Oc3ccc(C(F)(F)F)cc3)cc2)CC1 [Example 140] | 0.8 | 11.4 | > 10 | – | – | –

Row | SMILES | IC50 (MMP-2; [1]) [nM] | IC50 (MMP-13; [2]) [nM] | IC50 (MMP-1; [3]) [µM] | IC50 (MMP-2; MMP-2 IC50 (nM)) [nM] | IC50 (MMP-13) [nM] | IC50 (MMP-1) [µM]
20 | CC(C)(Cl)CC(=O)C1CCN(c2ccc(S(=O)(=O)C3(C(=O)NO)CCOCC3)cc2)CC1 [Example 760] | 25.4 | 6 | > 10 | – | – | –
21 | O=C(NCCc1ccccc1)OC1CCN(c2ccc(S(=O)(=O)C3(C(=O)NO)CCOCC3)cc2)CC1 [Example 516] | 300 | 14.8 | > 10 | – | – | –
22 | COc1cccc(S(=O)(=O)N2CCN(c3ccc(S(=O)(=O)C4(C(=O)NO)CCOCC4)cc3)CC2)c1 [Example 696] | 140 | 10 | > 10 | – | – | –
23 | O=C(Nc1ccc(F)cc1)OC1CCN(c2ccc(S(=O)(=O)C3(C(=O)NO)CCOCC3)cc2)CC1 [Example 191] | 25.1 | 3.5 | > 10 | – | – | –
24 | Nc1ccc(OC2CCN(c3ccc(S(=O)(=O)C4(C(=O)NO)CCOCC4)cc3)CC2)cc1 [Example 553] | 50 | 12.8 | > 10 | – | – | –
25 | O=C(NO)C1(S(=O)(=O)c2ccc(Oc3ccc(OC(F)(F)F)cc3)cc2)CCN(CCCN2CCOCC2)CC1 [Example 264, N-Hydroxy-1-[3-(4-morpholinyl)propyl]-4-[[4-[4-(trifluoromethoxy)phenoxy]phenyl]sulfonyl]-4-piperidinecarboxamide Dihydrochloride] | < 0.1 | 0.2 | 4.5 | – | – | –
26 | CCN(CC)CC(=O)N1CCC(C(=O)NO)(S(=O)(=O)c2ccc(N3CCC(C(=O)N4CC(C)CC(C)C4)CC3)cc2)CC1 (stereo not drawn) [Example 295] | > 10000 | 50 | > 10 | – | – | –
27 | CC1CC(C)CN(C(=O)C2CCN(c3ccc(S(=O)(=O)C4(C(=O)NO)CCN(C(C)C)CC4)cc3)CC2)C1 (stereo not drawn) [Example 458] | 2100 | 210 | > 10 | – | – | –
28 | CCCCSC1CCN(c2ccc(S(=O)(=O)C3(C(=O)NO)CCOCC3)cc2)CC1 [Example 596] | 10.6 | 1.1 | > 10 | – | – | –
29 | CCOCc1ccc(COC2CCN(c3ccc(S(=O)(=O)C4(C(=O)NO)CCOCC4)cc3)CC2)cc1 [Example 472] | 200 | 4 | > 10 | – | – | –
30 | O=C(NO)C1(S(=O)(=O)c2ccc(N3CCCC(COCc4cccc(C(F)(F)F)c4)C3)cc2)CCOCC1 (stereo not drawn) [Example 507] | 210 | 15.8 | > 10 | – | – | –
31 | CCCN(CC(=O)N1CCC(C(=O)NO)(S(=O)(=O)c2ccc(N3CCC(C(=O)N4CC(C)CC(C)C4)CC3)cc2)CC1)CC1CC1 (stereo not drawn) [Example 292] | > 10000 | 100 | > 10 | – | – | –
32 | O=CN1CCC(C(=O)NO)(S(=O)(=O)c2ccc(Oc3ccc(OC(F)(F)F)cc3)cc2)CC1 [Example 416] | 0.2 | 0.4 | 3 | – | – | –
33 | C=Cc1cccc(C(=O)C2CCN(c3ccc(S(=O)(=O)C4(C(=O)NO)CCOCC4)cc3)CC2)c1 [Example 786] | 700 | 3.7 | > 10 | – | – | –
34 | CS(=O)(=O)N1CCCN(C2CCN(c3ccc(S(=O)(=O)C4(C(=O)NO)CCOCC4)cc3)CC2)CC1 [Example 815] | 1400 | 140 | > 10 | – | – | –
35 | CN1CCN(CCCCC(=O)N2CCC(C(=O)NO)(S(=O)(=O)c3ccc(Oc4ccc(C(F)(F)F)cc4)cc3)CC2)CC1 [Example 339] | 0.3 | 1 | > 10 | – | – | –
36 | CCCc1ccc(C(=O)C2CCN(c3ccc(S(=O)(=O)C4(C(=O)NO)CCOCC4)cc3)CC2)cc1 [Example 860] | 1500 | 2.7 | > 10 | – | – | –
37 | CCCN(CC1CC1)C(=O)C1CCN(c2ccc(S(=O)(=O)C3(C(=O)NO)CCOCC3)cc2)CC1 [Example 35] | 9000 | 30 | > 10 | – | – | –
